Here are results for two compounds from patent publication US20070140972A1, “Targeting compositions and preparation therof” (CTT CANSER TARGETING TECHNOLOGIES OY, priority 2003, published 2007).

Structures are written as SMILES. Where a SMILES comes first, the peptide text is derived from it.

For data set [1], the system named is human ovarian carcinoma tumours (OV-90). The experiment in a line: Biodistribution of I-125 labelled 6F-Trp CTT2 peptide in OV-90 tumour mice (gamma counting). Type of data set: in vivo. The settings on record: 30 min and 180 min; clearance comparable to blood. The protocol:
FIG. 8. The biodistribution study of I-125 labelled 6F-Trp CTT2 ([…][6-fluoro]WGFTLC)-peptide. The in vivo biodistribution of the ^125I-labeled peptide was assessed at two time points in NMRI/nude mice carrying human ovarian tumours on their lower back. Results are expressed as percentage of injected dose per 1 g tissue (% ID/1 g). All values are indicated as mean±SD of 5 mice.
The 6F-Trp CTT2 peptide was used in biodistribution study to evaluate its kinetic and tumour targeting properties. The study was performed in mice with established human ovarian carcinoma tumours (OV-90). The 6F-Trp CTT2 peptide was labelled with iodine-125. 40 μg of purified and labelled peptide (˜1 MBq) was injected into the tail vein of mice. 30 min and 180 min after peptide injection mice were sacrificed and blood and tissue samples were collected. The accumulated radioactivity was determined with gamma counter.

The nature of data set [2]: Serum stability of CTT2 derivative. In kind it is in vitro ADME. The note with it: versus wild type CTT2 peptide.
The test system of data set [3] is tumour cell migration. The data set can be described thus: Inhibition of tumour cell migration. The note with it: versus wild type CTT2 peptide. In kind it is cell-based.
The test system of data set [4] is A2780 cells. The data set can be described thus: Therapeutic efficacy (survival) in A2780 xenograft mice. The note with it: three injections in three-day intervals; sacrificed when tumour exceeded 1000 mm^3. In kind it is in vivo, NMRI nude female mice. As to the method:
A2780 cells were injected subcutaneously into the posterior flanks of 50 NMRI nude female mice. The mice were randomly allocated into five treatment groups. […] In this study, the mice received three drug injections of 9 mg liposomal or free doxorubicin/kg in three-day intervals.
The mice were weighed and their tumour sizes were measured twice a week after treatment initiation. When tumour sizes exceeded 1000 mm^3 the mice were sacrificed.

For the compound `CC(C)C[C@@H]1NC(=O)[C@H]([C@@H](C)O)NC(=O)[C@H](Cc2ccccc2)NC(=O)CNC(=O)C(Cc2c[nH]c3cc(F)ccc23)NC(=O)[C@H](Cc2c[nH]cn2)NC(=O)[C@H]([C@@H](C)O)NC(=O)[C@H]([C@@H](C)O)NC(=O)[C@@H](NC(=O)CNC(=O)[C@H](Cc2c[nH]cn2)NC(=O)[C@H](Cc2ccc(O)cc2)NC(=O)[C@H](CC(N)=O)NC(=O)[C@H](CCC(=O)O)NC(=O)[C@H](CCCNC(=N)N)NC(=O)CN)CSSC[C@@H](C(N)=O)NC1=O` (stereo partly drawn) [6F-Trp CTT2, GRENYHG-Cyclo(CTTH(d,l-6-Fluoro-W)GFTLC)-NH2] (HELM PEPTIDE1{G.R.E.N.Y.H.G.C.T.T.H.[O=C(C(Cc1c[nH]c2cc(F)ccc12)N[*:1])[*:2]].G.F.T.L.C.[am]}$PEPTIDE1,PEPTIDE1,8:R3-17:R3$$$V2.0; N-terminus assumed), the “accumulation of radioactivity in all other organs” value in data set [1] is on record as “negligible”. In addition, the “serum stability in comparison to the wild type peptide” value in data set [2] is listed as “enhancement in serum stability”. In addition, the “ability to inhibit tumour cell migration in comparison to the wild type peptide” value in data set [3] is “improved ability to inhibit tumour cell migration”.

As for `COc1cccc2c1C(=O)c1c(O)c3c(c(O)c1C2=O)C[C@@](O)(C(=O)CO)C[C@@H]3O[C@H]1C[C@H](N)[C@H](O)[C@H](C)O1` [free doxorubicin, doxorubicin], the “survival status by five weeks after treatment initiation” value in data set [4] is “had been sacrificed”.
